Literature values as cited in patent US20160017431A1, “Methods for Predicting EGFR Tyrosine Kinase Inhibitor Efficacy” (Driver Group, priority 2014, published 2016).

Tested on: EGFR mutants carrying the T790M mutation
Conditions: statement 'has been shown', no data given

SMILES	inhibition of the tyrosine kinase activity of EGFR mutants carrying the T790M mutation
COc1cc(N2CCC(N(C)C)CC2)ccc1Nc1ncc(Cl)c(Nc2ccccc2P(C)(C)=O)n1 [AP26113]	able to inhibit the tyrosine kinase activity
COc1cc2ncnc(Nc3ccc(F)c(Cl)c3)c2cc1NC(=O)/C=C/CN1CCCCC1 [Dacomitinib]	able to inhibit the tyrosine kinase activity
